Reference: publication PMC10099595, “Multimodal 4-arylchromene derivatives with microtubule-destabilizing, anti-angiogenic, and MYB-inhibitory activities” (Cancer Drug Resistance, 2023)
Like-named read-outs stand apart in the source and are kept apart here.

How the values were obtained:
[1] = tested on: HT-29 colon carcinoma cells; test: MTT antiproliferative assay, HT-29; format: cell-based; settings: Homo sapiens, 72 h
Description: (§1) The following cell lines were used: 518A2 melanoma (Department of Radiotherapy, Medical University of Vienna, Austria)[15], HeLa cervix carcinoma, KBV1^Vbl (ACC-149 cervix carcinoma, MCF7 [ACC-115]) breast carcinoma, U-87 glioblastoma, HT-29 (ACC-299), HCT-116 (ACC-581) and HCT-116p53-/- colon carcinoma, EA.hy926 (ATCC® CRL-2922^TM) endothelial hybrid cells, and HDFa (ATCC® PCS-201-012^TM) adult human dermal fibroblasts. […] Only mycoplasma-free cultures were used.

[2] = tested on: HDFa adult human dermal fibroblasts; test: MTT cytotoxicity assay, non-malignant HDFa; format: cell-based; settings: 72 h, non-malignant cells
Description: as §1

[3] = tested on: EA.hy926 endothelial hybrid cells; test: MTT antiproliferative assay, EA.hy926; format: cell-based; settings: Homo sapiens, EA.hy 926, 72 h
Description: as §1

[4] = tested on: KB-V1^Vbl cervix carcinoma cells; test: MTT antiproliferative assay, KB-V1Vbl (with or without verapamil); format: cell-based, human; settings: for IC50: Homo sapiens, KB-V1/Vbl, MTT, 72 h, without verapamil, read-out: IC50 KB-V1^Vbl; for fold lower IC50 values combined with verapamil: KB-V1^Vbl cells, verapamil 1 µM vs none; for P-gp substrate / dependence on P-gp: inferred from KB-V1^Vbl cells with and without verapamil
Description: as §1

[5] = tested on: U-87 glioblastoma cells; test: MTT antiproliferative assay, U87; format: cell-based; settings: Homo sapiens, 72 h
Description: as §1

[6] = target: T1, MYB (Homo sapiens, UniProt P10242, K503R/K527R); test: Luciferase-dependent MYB activity assay (HEK-MYB-Luc reporter cells); format: cell-based; settings: HEK-293 reporter cells, 16 h; read-out: IC50 inhibition of MYB activity
T1 construct: expressed in transfected cells; host or cells: HEK-293 (HEK-MYB-Luc reporter cell line)
Procedure: Compounds were tested using the HEK-MYB-Luc reporter cell line, which allows a doxycycline-dependent induction of MYB expression and harbors an MYB-dependent luciferase reporter plasmid, as previously described. After 16 h of substance treatment (0.0001-3 µM), luciferase activities were analyzed as described.

[7] = tested on: tested cancer and hybrid cell lines; test: MTT assay, average over all tested cancer and hybrid cell lines
Procedure: An 3-(4, 5-dimethylthiazol-2-yl)-2, 5-diphenyl tetrazolium bromid (MTT) assay was used for antiproliferative studies. Cancer cells (5 × 10^4 cells/mL, 100 μL/well) were placed in 96-well plates (10 × 10^4 cells/mL for HDFA and U87 cells), and the cells were incubated for 24 h at 5% CO2 and 95% humidity. Then, cells were treated with test compounds (at various concentrations) or solely with DMSO as a negative control for 72 h. Then, 12.5 μL of a 0.5% MTT solution in phosphate-buffered saline (PBS) was added to the cells, followed by incubation for 2 h at 37 °C. After centrifugation of the plates (300 × g, 5 min, 4 °C), the medium was discarded, and 25 μL of DMSO containing 10% SDS and 0.6% acetic acid was added, followed by incubation at 37 °C for at least 1 h. Formazan absorbance at λ = 570 nm was measured using a Tecan infinite F200 microplate reader and corrected for the background (λ = 630 nm). The 50% inhibitory concentration (IC50) values were calculated from dose-response curves (means ± SD, four independent experiments) compared to DMSO-treated control cells, which were set to 100%. GraphPad Prism 9 was used for curve-fitting.
The selectivity index (SI) was calculated as a measure of selectivity toward cancer cells compared to non-malignant cells.

[8] = tested on: 518A2 melanoma cells; test: MTT antiproliferative assay, 518A2; format: cell-based; settings: Homo sapiens, 72 h
Description: as §1

[9] = tested on: MCF-7 breast carcinoma cells; test: MTT antiproliferative assay, MCF-7; format: cell-based; settings: Homo sapiens, MCF7, 72 h
Description: as §1

[10] = tested on: HeLa cervix carcinoma cells; test: MTT antiproliferative assay, HeLa; format: cell-based; settings: Homo sapiens, 72 h
Description: as §1

[11] = tested on: zebrafish larvae; test: Zebrafish angiogenesis assay (SIV area); format: in vivo; settings: zebrafish larvae 24 hpf, 48 h treatment, 50-1000 nM
Procedure: Transgenic zebrafish (Tg(fli1:EGFP, casper mutant) were bred at 28 °C.[16] After fertilization, the eggs were transferred to E3-medium (5 mm NaCl, 0.17 mm KCl, 0.33 mm CaCl, 0.33 mm MgSO4, 0.01% methylene blue, pH 7.2), followed by incubation for 24 h. The chorion was manually removed, and the larvae were treated with test compounds or solvent in six-well plates (30 fish per concentration, 5 mL/well) for 48 h. The fluorescent vasculature was documented with a Leica MZ10F and Zeiss AxioCam MRrc. To quantify the angiogenesis, the sub-intestinal vein (SIV) area was measured using ImageJ and expressed as means ± SD with the control set to 100%. The significance of SIV reduction through substance treatment was assessed using one-way analysis of variance (ANOVA), *P < 0.05; **P < 0.01; ***P < 0.001; ****P < 0.0001, with Dunnett´s multiple comparison test (GraphPad Prism 9).

[12] = tested on: HCT-116 colon carcinoma cells; test: MTT antiproliferative assay, HCT-116; format: cell-based; settings: Homo sapiens, 72 h
Description: as §1

[13] = tested on: HCT-116 p53-/- colon carcinoma cells; test: MTT antiproliferative assay, HCT-116 p53-/-; format: cell-based; settings: Homo sapiens, 72 h
Description: as §1

[14] = tested on: 518A2 melanoma cells; test: Cell-cycle analysis (FACS, propidium iodide); format: cell-based, human; settings: 518A2 cells, 25 nM, 24 h
Procedure: 518A2 melanoma cells (10 × 10^4 cells/mL, 3 mL/well) were cultivated in six-well plates for 24 h. After the treatment with test compounds (10 and 25 nm), C-A4 (10 and 25 nm), or DMSO (vehicle) for an additional 24 h, the cells were trypsinized, centrifuged (300 × g, 5 min, 4 °C), and fixed in 70% EtOH for min. 24 h. For FACS measurement, cells were washed in PBS and stained with propidium iodide solution (50 µg/mL PI, 50 µg/mL RNase A in 0.1% sodium citrate) for 30 min at 37 °C. The DNA content of at least 10000 single cells was determined using a Beckmann Coulter Cytomics FC500 flow cytometer (λex = 488 nm, λem = 570 nm). CXP software (Beckman Coulter) was used to analyze the cells in the cell cycle phases (sub-G1, G1, S, G2/M).

[15] = Homo sapiens, read-out: Average IC50 value of the tested cancer and hybrid cell lines (Ø IC50), average of all cell lines of Table 2

T1 sequence (P10242 whole entry K503R/K527R): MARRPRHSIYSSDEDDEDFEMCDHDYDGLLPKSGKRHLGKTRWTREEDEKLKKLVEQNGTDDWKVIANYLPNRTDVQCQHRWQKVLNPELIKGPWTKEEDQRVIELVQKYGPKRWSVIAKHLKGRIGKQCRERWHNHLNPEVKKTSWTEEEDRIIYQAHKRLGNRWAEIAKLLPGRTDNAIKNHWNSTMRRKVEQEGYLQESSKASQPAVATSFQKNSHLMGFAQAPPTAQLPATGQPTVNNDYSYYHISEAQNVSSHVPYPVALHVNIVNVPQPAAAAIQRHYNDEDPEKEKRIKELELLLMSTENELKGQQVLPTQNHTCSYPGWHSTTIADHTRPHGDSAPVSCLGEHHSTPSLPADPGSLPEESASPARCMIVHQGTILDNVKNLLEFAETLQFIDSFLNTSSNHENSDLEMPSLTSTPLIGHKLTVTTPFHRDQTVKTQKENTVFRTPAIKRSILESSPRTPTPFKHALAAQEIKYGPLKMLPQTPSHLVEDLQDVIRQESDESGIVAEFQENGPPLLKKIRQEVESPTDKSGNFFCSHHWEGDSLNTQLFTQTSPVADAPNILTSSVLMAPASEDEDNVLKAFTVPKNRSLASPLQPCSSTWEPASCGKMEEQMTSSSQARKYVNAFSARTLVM

SMILES	IC50 [1] [nM]	IC50 [4] [nM]	fold lower IC50 values combined with verapamil [4] [fold]	IC50 [5] [nM]	IC50 [6] [nM]	IC50 [7, 15] [nM]	IC50 [8] [nM]	IC50 [9] [nM]	IC50 [10] [nM]	IC50 [12] [nM]	IC50 [13] [nM]	IC50 ([7]; read-out: Average IC50 value of the tested cancer and hybrid cell lines (Ø IC50), average of all cell lines of Table 2) [nM]	IC50 [2] [nM]	IC50 [3] [nM]	effect on SIV growth (angiogenesis) [11]	G2/M cell-cycle arrest (in words) [14]	P-gp substrate / dependence on P-gp [4]
COc1ccc2c(c1)OC(N)=C(C#N)C2c1cc(Cl)c(OC)c(Cl)c1 (stereo not shown) [2D, 2-Amino-3-cyano-4-(3’, 5’-dichloro-4’-methoxyphenyl)-7-methoxy-4H-chromene]	1400 ± 100	2100 ± 100		3900 ± 400		> 500	2100 ± 200	2400 ± 300	700 ± 50	2500 ± 200	1900 ± 200			1100 ± 70		only a slight increase in G2/M phase cells	
COc1ccc2c(c1)OC(N)=C(C#N)C2c1ccc(F)c(F)c1 (stereo not shown) [2I, 2-Amino-3-cyano-4-(3’, 4’-difluorophenyl)-7-methoxy-4H-chromene]	800 ± 30	700 ± 30	12	3600 ± 500			700 ± 5	700 ± 100	600 ± 30	800 ± 6	600 ± 6			700 ± 10			
COc1ccc2c(c1)OC(N)=C(C#N)C2c1ccc(F)c(Cl)c1 (stereo not shown) [2J, 2-Amino-3-cyano-4-(3’-chloro-4’-fluorophenyl)-7-methoxy-4H-chromene]	500 ± 50	300 ± 20		1200 ± 70		396	400 ± 10	150 ± 20	100 ± 6	300 ± 30	400 ± 40	> 500		400 ± 20			substrate of P-gp
COc1ccc2c(c1)OC(N)=C(C#N)C2c1ccc(Cl)c(Cl)c1 (stereo not shown) [2K, 2-Amino-3-cyano-4-(3’, 4’-dichlorophenyl)-7-methoxy-4H-chromene]	1900 ± 100	1300 ± 100		8500 ± 300		> 500	600 ± 7	1000 ± 50	800 ± 70	300 ± 10	800 ± 20			600 ± 80			
COc1ccc2c(c1)OC(N)=C(C#N)C2c1ccc(F)cc1F (stereo not shown) [2L, 2-Amino-3-cyano-4-(2’, 4’-difluorophenyl)-7-methoxy-4H-chromene]	500 ± 50	3800 ± 400		5100 ± 500		> 500	500 ± 30	> 50000	1500 ± 70	2500 ± 40	1600 ± 160			200 ± 10			
COc1ccc2c(c1)OC(N)=C(C#N)C2c1cccc(S(F)(F)(F)(F)F)c1 (stereo not shown) [2Q, 2-Amino-3-cyano-4-(3’-pentafluorothiophenyl)-7-methoxy-4H-chromene]	400 ± 30	1900 ± 100		900 ± 60		> 500	300 ± 10	800 ± 30	400 ± 4	700 ± 40	2900 ± 10			600 ± 20			

The next lines start with results.

IC50 [1] [nM]	IC50 [4] [nM]	fold lower IC50 values combined with verapamil [4] [fold]	IC50 [5] [nM]	IC50 [6] [nM]	IC50 [7, 15] [nM]	IC50 [8] [nM]	IC50 [9] [nM]	IC50 [10] [nM]	IC50 [12] [nM]	IC50 [13] [nM]	IC50 ([7]; read-out: Average IC50 value of the tested cancer and hybrid cell lines (Ø IC50), average of all cell lines of Table 2) [nM]	SMILES	IC50 [2] [nM]	IC50 [3] [nM]	effect on SIV growth (angiogenesis) [11]	G2/M cell-cycle arrest (in words) [14]	P-gp substrate / dependence on P-gp [4]
200 ± 20	10 ± 1	14	80 ± 5	1.28 ± 0.3	49	6 ± 0.2	100 ± 8	2 ± 0.2	100 ± 10	30 ± 3		COc1ccc2c(c1)OC(N)=C(C#N)C2c1cc(Br)c(OC)c(OC)c1 (stereo not shown) [2B]	> 50000	0.8 ± 0.09	no SIV decrease		
200 ± 20	60 ± 5	20	25 ± 2	1.56 ± 0.2	47	20 ± 2	20 ± 1	10 ± 0.9	70 ± 1	6 ± 0.7		COc1ccc2c(c1)OC(N)=C(C#N)C2c1cc(I)c(OC)c(OC)c1 (stereo not shown) [2C, 2-Amino-3-cyano-4-(3’-iodo-4’, 5’-dimethoxyphenyl)-7-methoxy-4H-chromene]	> 50000	60 ± 5	no SIV decrease		
200 ± 10	700 ± 20		3200 ± 100		> 500	700 ± 40	500 ± 40	400 ± 60	200 ± 20	300 ± 40		COc1ccc2c(c1)OC(N)=C(C#N)C2c1ccccc1F (stereo not shown) [2G, 2-Amino-3-cyano-4-(2’-fluorophenyl)-7-methoxy-4H-chromene]		900 ± 90			
200 ± 20	900 ± 90		400 ± 60		330	300 ± 10	200 ± 30	90 ± 2	500 ± 50	200 ± 8		COc1ccc2c(c1)OC(N)=C(C#N)C2c1cccc(F)c1F (stereo not shown) [2M, 2-Amino-3-cyano-4-(2’, 3’-difluorophenyl)-7-methoxy-4H-chromene]		400 ± 10			P-gp substrates
400 ± 30	700 ± 70		500 ± 100		> 500	90 ± 60	300 ± 7	200 ± 20	500 ± 50	200 ± 10		COc1ccc2c(c1)OC(N)=C(C#N)C2c1cc(F)ccc1F (stereo not shown) [2N, 2-Amino-3-cyano-4-(2’, 5’-difluorophenyl)-7-methoxy-4H-chromene]		4700 ± 900			P-gp substrates
70 ± 8	20 ± 2		100 ± 10		203	60 ± 6	400 ± 60	40 ± 4	1400 ± 50	40 ± 3		COc1ccc2c(c1)OC(N)=C(C#N)C2c1cc(F)cc(F)c1 (stereo not shown) [2O]		40 ± 1			no dependence on P-gp
200 ± 5			1100 ± 90		330	300 ± 30	400 ± 50	100 ± 20	300 ± 20	300 ± 20		COc1ccc2c(c1)OC(N)=C(C#N)C2c1cc(F)c(F)c(F)c1 (stereo not shown) [2P, 2-Amino-3-cyano-4-(3’, 4’, 5’-trifluorophenyl)-7-methoxy-4H-chromene]		400 ± 40			no dependence on P-gp
200 ± 20	30 ± 0.4		900 ± 50		227	30 ± 2	10 ± 0.8	300 ± 20	300 ± 30	200 ± 20		COc1ccc2c(c1)OC(N)=C(C#N)C2c1cccc([N+](=O)[O-])c1 (stereo not shown) [2R]		300 ± 9			
